Where a name gives a salt, the structure may show the parent alone.
How the values were obtained:
MeWo melanoma cells = assay: orthotopic metastasis assay after tumor excision; type: in vivo, mouse; settings: oral, chow 100 mg/kg for 1 month
Procedure: To determine the effect of GW3965 treatment on lung colonization by melanoma cells dissociated from an orthotopic site, 1×10^6 MeWo cells expressing a luciferase reporter were subcutaneously injected into both lower flanks of NOD Scid mice. Upon the formation of tumors measuring ˜300 mm^3 in volume, the tumors were excised and the mice were randomly assigned to a control diet or a GW3965-supplemented diet (100 mg/kg) treatment. One month after tumor excision, the lungs were extracted and lung colonization was measured by ex vivo bioluminescence imaging. To histologically confirm the extent of melanoma lung colonization, lungs were then fixed in 4% PFA overnight, paraffin-embedded, section into […] increments and stained for human vimentin (VP-V684, Vector Laboratories).

[1] = test system: B16F10 mouse melanoma cells; assay: subcutaneous B16F10 tumor growth in mice; type: in vivo; settings: chow 100 mg/kg
Procedure: First, the cells were treated with 500 μg/mL DTIC for one week. Following this initial DTIC treatment, the remaining (˜10%) viable cells were allowed to recover for one week, after which 750 μg/mL of DTIC was added to the cell media for 5 days. Subsequent to this high-dose treatment, the cells were allowed to recover in the presence of low-dose DTIC (100 μg/mL) for one week. The cells were then continuously cultured in cell media containing 200 μg/mL DTIC for at least one month prior to grafting the cells into mice. DTIC was added to fresh cancer cell media every 3 days. […] DTIC was dissolved in the presence of citric acid (1:1 by weight) in water and administered daily by intraperitoneal injection.

[2] = test system: MDA-468 human breast cancer cells; assay: MDA-468 breast cancer tumor growth in mammary fat pads; type: in vivo, mouse; settings: diet 75 mg/kg/day
Procedure: The mice were assigned to a control diet treatment or a GW3965-supplemented diet treatment (75 mg/kg/day) two days prior to injection of the cancer cells.

[3] = test system: B-RafV600E/+; Pten−/−; CDKN2A−/− primary mouse melanoma cells; assay: B-RafV600E/+; Pten−/−; CDKN2A−/− melanoma cells in syngeneic mice; type: in vivo
Procedure: Melanoma cells used for in vivo metastasis assays were transduced with a stably expressed retroviral construct encoding a luciferase reporter gene (Ponomarev et al., 2004), allowing us to monitor the in vivo progression of melanoma cells by bioluminescence imaging. The following numbers of melanoma cells, resuspended in 100 μL of PBS, were injected intravenously via the tail-vein: 4×10^4 MeWo cells, 2.5×10^5 HT-144 cells, 2×10^5 SK-Mel-334.2 cells, 5×10^4B 16F10 cells, and 1×10^5YUMM cells. The MeWo, HT-144, and SK-Mel-334.2 cells were injected into 6-8 week-old sex-matched NOD scid mice, while the B16F10 and YUMM cells were injected into 6-8 week-old sex-matched C57BL/6 mice. […] To assess the effect of GW3965 treatment on brain metastasis, 1×10^5 MeWo brain-metastatic derivatives were injected intracardially into athymic nude mice. Immediately following injection, mice were randomly assigned to a control diet or GW3965-supplemented diet (100 mg/kg). To determine whether oral delivery of GW3965 can inhibit the progression of incipient metastasis, NOD Scid mice were intravenously injected with 4×10^4MeWo cells and the cells were allowed to colonize the lungs for 42 days, after which mice were blindedly assigned to a control diet or a GW3965-supplemented diet (100 mg/kg) treatment.

[4] = test system: MeWo brain metastatic derivative cells; assay: brain metastasis assay, intracardiac injection; type: in vivo, mouse; settings: oral, diet 100 mg/kg
Procedure: Melanoma cells used for in vivo metastasis assays were transduced with a stably expressed retroviral construct encoding a luciferase reporter gene (Ponomarev et al., 2004), allowing us to monitor the in vivo progression of melanoma cells by bioluminescence imaging. The following numbers of melanoma cells, resuspended in 100 μL of PBS, were injected intravenously via the tail-vein: 4×10^4 MeWo cells, 2.5×10^5 HT-144 cells, 2×10^5 SK-Mel-334.2 cells, 5×10^4B 16F10 cells, and 1×10^5YUMM cells. The MeWo, HT-144, and SK-Mel-334.2 cells were injected into 6-8 week-old sex-matched NOD scid mice, while the B16F10 and YUMM cells were injected into 6-8 week-old sex-matched C57BL/6 mice. In all experiments assessing at the effects of GW3965 on metastasis formation, mice were pre-treated on a control diet or a GW3965-supplemented diet (20 mg/kg) for 10 days. To assess the effect of GW3965 treatment on brain metastasis, 1×10^5 MeWo brain-metastatic derivatives were injected intracardially into athymic nude mice. Immediately following injection, mice were randomly assigned to a control diet or GW3965-supplemented diet (100 mg/kg). […]

[5] = test system: breast cancer, renal cell cancer and pancreatic cancer cell lines; assay: endothelial recruitment by other cancer types; type: cell-based, human
[6] = test system: endothelial cells (HUVEC); assay: endothelial migration and chemotaxis assays; type: cell-based, human; settings: cancer cell-free system
Procedure: Serum-starved HUVEC's were pulsed with Cell Tracker Red CMTPX dye for 45 minutes and seeded into HTS Fluoroblock trans-well inserts at a concentration of 1×10^5 HUVEC's in 0.5 mL starvation media per each insert. The assay was allowed to proceed for 16-18 hours at 37° C., and the inserts were processed and analyzed as described above (See Matrigel Invasion Assay).
HUVEC's were serum-starved in 0.2% FBS EGM-2 media for 16 hours and labeled with Cell Tracker Red CMTPX dye for 45 minutes. Meanwhile, the indicated amounts (1-5 μg) of recombinant human ApoE3 or BSA were mixed with 250 μL of matrigel (356231, BD Biosciences) and allowed to solidify at the bottom of a 24-well plate for 30 min. 250 μL of HUVEC EGM-2 media containing 0.2% FBS was then added to each matrigel-coated well, and […] HTS Fluoroblock inserts were fitted into each well. 1×10^5 HUVEC's, resuspended in 0.5 mL of starvation media, were seeded into each insert and allowed to migrate along the matrigel gradient for 16-18 hours at 37° C. Upon completion of the assay, the inserts were mounted on slides and analyzed as described above (See Matrigel Invasion Assay).

Compound	inhibition of lung colonization by disseminated melanoma cells post-tumor excision (MeWo melanoma cells) [fold]	suppression of tumor growth by DTIC-resistant B16F10 clone [1]	breast cancer tumor size in vivo [2]	tumor growth ([3]; chow 100 mg/kg)	lung metastasis ([3]; diet 100 mg/kg)	overall survival ([3]; diet 100 mg/kg)	brain colonization [4]	systemic dissemination [4]	endothelial recruitment across breast, renal cell and pancreatic cancer [5]	endothelial migration in trans-well and gradient-based chemotactic assay [6]
O=C(O)Cc1cccc(OCCCN(Cc2cccc(C(F)(F)F)c2Cl)CC(c2ccccc2)c2ccccc2)c1 [GW3965 2, 3-[3-[N-(2-Chloro-3-trifluoromethylbenzyl)-(2,2-diphenylethyl)amino]propyloxy] phenylacetic acid hydrochloride]	17	more than 70%	significant reduction	robustly inhibited	robustly inhibited	extended	inhibited	inhibited		
recombinant ApoE3: recombinant human ApoE3 (4696, BioVision)									inhibited	sufficient to inhibit
